The record followed here is patent US11612606B2, “8-aminoisoquinoline compounds and uses thereof” (priority 2018, dated 2023).

SMILES strings stand for the structures. Where a name gives a salt, the structure may show the parent alone. A value given as a limit tells only on which side of the number the result lay.

The target of the assay is HPK full length, T165E S171E (Homo sapiens (Human), UniProt Q92918, S171E/T165E). Nature of the assay: HPK1-FL HTRF enzymatic assay ("HTRF"). To be noted: ATP 1 mM, read-out: HPK1 Ki. Type of assay: biochemical. The procedure, abridged: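 Full-length HPK1 (T165E/S171E) was preincubated 30 min with compound, then reacted 60 min with biotin-SLP-76 and 1 mM ATP. Phospho-SLP-76 was detected by HTRF (Eu-anti-pSLP76 antibody, SA-XL665) after a further 60 min.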
Chain of HPK full length, T165E S171E (Q92918 whole entry T165E/S171E, looked up): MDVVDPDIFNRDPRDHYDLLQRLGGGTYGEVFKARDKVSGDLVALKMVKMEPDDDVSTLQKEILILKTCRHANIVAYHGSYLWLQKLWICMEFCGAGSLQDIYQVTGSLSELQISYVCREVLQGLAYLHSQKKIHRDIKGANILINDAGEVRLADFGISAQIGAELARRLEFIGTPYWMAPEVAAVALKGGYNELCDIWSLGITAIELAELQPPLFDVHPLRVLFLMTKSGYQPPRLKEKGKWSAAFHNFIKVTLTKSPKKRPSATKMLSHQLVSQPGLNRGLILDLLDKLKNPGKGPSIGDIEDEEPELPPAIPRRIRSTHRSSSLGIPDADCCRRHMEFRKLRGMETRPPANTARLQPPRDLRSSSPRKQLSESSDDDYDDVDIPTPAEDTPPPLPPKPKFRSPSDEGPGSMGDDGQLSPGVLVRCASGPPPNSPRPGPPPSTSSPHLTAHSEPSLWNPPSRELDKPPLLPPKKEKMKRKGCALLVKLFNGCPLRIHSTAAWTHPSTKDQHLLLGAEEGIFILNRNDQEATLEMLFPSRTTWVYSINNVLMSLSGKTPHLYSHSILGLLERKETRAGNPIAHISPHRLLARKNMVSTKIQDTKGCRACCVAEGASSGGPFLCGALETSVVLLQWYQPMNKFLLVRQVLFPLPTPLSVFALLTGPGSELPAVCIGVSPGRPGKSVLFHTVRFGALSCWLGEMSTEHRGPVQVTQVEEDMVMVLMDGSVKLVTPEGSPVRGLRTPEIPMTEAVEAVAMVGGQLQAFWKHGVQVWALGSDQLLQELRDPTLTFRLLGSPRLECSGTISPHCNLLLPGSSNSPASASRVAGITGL

On to `Cc1c(-c2cc3cc(NC(=O)OC4CN(S(C)(=O)=O)C4)ncc3c(N)c2F)cnc2c1NCCC2` [Compound 493, 1-(Methylsulfonyl)azetidin-3-yl (8-amino-7-fluoro-6-(4-methyl-5,6,7,8-tetrahydro-1,5-naphthyridin-3-yl)isoquinolin-3-yl)carbamate], for which the Ki was 0.064 nM. Consider `Cc1c(-c2cc3cc(NC(=O)OC4CC5(C4)CN(CC(F)F)C5)ncc3c(N)c2F)cnc2c1NCCO2` [Compound 494, 2-(2,2-Difluoroethyl)-2-azaspiro[3.3]heptan-6-yl (8-amino-7-fluoro-6-(8-methyl-2,3-dihydro-1H-pyrido[2,3-b][1,4]oxazin-7-yl)isoquinolin-3-yl)carbamate], for which the Ki was below 0.013 nM. As to `Cc1c(-c2cc3cc(NC(=O)O[C@H]4[C@@H]5CN(C(C)C)C[C@@H]54)ncc3c(N)c2F)cnc2c1NCCO2` [Compound 499a, (1R,5S,6s)-3-Isopropyl-3-azabicyclo[3.1.0]hexan-6-yl (8-amino-7-fluoro-6-(8-methyl-2,3-dihydro-1H-pyrido[2,3-b][1,4]oxazin-7-yl)isoquinolin-3-yl)carbamate], the Ki was below 0.013 nM. As to `Cc1c(-c2cc3cc(NC(=O)O[C@H]4[C@@H]5CN(C6COC6)C[C@@H]54)ncc3c(N)c2F)cnc2c1NCCO2` [Compound 502a, (1R,5S,6s)-3-(Oxetan-3-yl)-3-azabicyclo[3.1.0]hexan-6-yl (8-amino-7-fluoro-6-(8-methyl-2,3-dihydro-1H-pyrido[2,3-b][1,4]oxazin-7-yl)isoquinolin-3-yl)carbamate], the Ki is below 0.013 nM.

As to `CC[C@]1(O)C[C@H](OC(=O)Nc2cc3cc(-c4cnc5c(c4C)NCCO5)c(F)c(N)c3cn2)C1` [Compound 512a, (1s,3r)-3-Ethyl-3-hydroxycyclobutyl (8-amino-7-fluoro-6-(8-methyl-2,3-dihydro-1H-pyrido[2,3-b][1,4]oxazin-7-yl)isoquinolin-3-yl)carbamate], the Ki turned out to be 0.015 nM. With `Cc1c(-c2cc3cc(NC(=O)O[C@H]4C[C@@H](N5CC(F)(F)C5)C4)ncc3c(N)c2F)cnc2c1NCCO2` [Compound 513a, (1s, 3s)-3-(3,3-Difluoroazetidin-1-yl)cyclobutyl (8-amino-7-fluoro-6-(8-methyl-2,3-dihydro-1H-pyrido[2,3-b][1,4]oxazin-7-yl)isoquinolin-3-yl)carbamate], the Ki stood at 0.022 nM. Take `Cc1c(-c2cc3cc(NC(=O)O[C@H]4C[C@H](n5ccnc5)C4)ncc3c(N)c2F)cnc2c1NCCO2` [Compound 514a, (1r,3r)-3-(1H-Imidazol-1-yl)cyclobutyl (8-amino-7-fluoro-6-(8-methyl-2,3-dihydro-1H-pyrido[2,3-b][1,4]oxazin-7-yl)isoquinolin-3-yl)carbamate hydrochloride]: the Ki was below 0.013 nM. Take `Cc1c(-c2cc3cc(NC(=O)O[C@H]4C[C@@H](C(=O)N5CCC5)C4)ncc3c(N)c2F)cnc2c1NCCO2` [Compound 517a, (1s,3s)-3-(Azetidine-1-carbonyl)cyclobutyl (8-amino-7-fluoro-6-(8-methyl-2,3-dihydro-1H-pyrido[2,3-b][1,4]oxazin-7-yl)isoquinolin-3-yl)carbamate]: the Ki was below 0.013 nM.

Take `Cc1c(-c2cc3cc(NC(=O)O[C@H]4C[C@@H](C(=O)N(C)C)C4)ncc3c(N)c2F)cnc2c1NCCO2` [Compound 519a, (1s,3s)-3-(Dimethylcarbamoyl)cyclobutyl (8-amino-7-fluoro-6-(8-methyl-2,3-dihydro-1H-pyrido[2,3-b][1,4]oxazin-7-yl)isoquinolin-3-yl)carbamate]: the Ki is below 0.013 nM. On to `CNC(=O)[C@H]1C[C@@H](OC(=O)Nc2cc3cc(-c4cnc5c(c4C)NCCO5)c(F)c(N)c3cn2)C1` [Compound 520a, (1s,3s)-3-(Methylcarbamoyl)cyclobutyl (8-amino-7-fluoro-6-(8-methyl-2,3-dihydro-1H-pyrido[2,3-b][1,4]oxazin-7-yl)isoquinolin-3-yl)carbamate hydrochloride], for which the inhibitory constant (Ki) is below 0.013 nM. With `Cc1c(-c2cc3cc(NC(=O)OC4CN(CCF)C4)ncc3c(N)c2F)cnc2c1NCCO2` [Compound 521, 1-(2-Fluoroethyl)azetidin-3-yl (8-amino-7-fluoro-6-(8-methyl-2,3-dihydro-1H-pyrido[2,3-b][1,4]oxazin-7-yl)isoquinolin-3-yl)carbamate], the Ki was found to be 0.11 nM.

`Cc1c(-c2cc3cc(NC(=O)O[C@H]4[C@@H]5CN(S(C)(=O)=O)C[C@@H]54)ncc3c(N)c2F)cnc2c1NCCO2` [Compound 522a, (1R,5S,6s)-3-(Methylsulfonyl)-3-azabicyclo[3.1.0]hexan-6-yl (8-amino-7-fluoro-6-(8-methyl-2,3-dihydro-1H-pyrido[2,3-b][1,4]oxazin-7-yl)isoquinolin-3-yl)carbamate]: the Ki was below 0.013 nM. As to `Cc1c(-c2cc3cc(NC(=O)OC4CN(S(=O)(=O)C5CC5)C4)ncc3c(N)c2F)cnc2c1NCCO2` [Compound 524, (1-Cyclopropylsulfonylazetidin-3-yl)-N-[8-amino-7-fluoro-6-(8-methyl-2,3-dihydro-1H-pyrido[2,3-b][1,4]oxazin-7-yl)-3-isoquinolyl]-carbamate hydrochloride], the inhibition constant Ki was 0.02 nM.

`Cc1c(-c2cc3cc(NC(=O)O[C@H]4C[C@@H](N5CC(F)C5)C4)ncc3c(N)c2F)cnc2c1NCCO2` [Compound 525a, (1s,3s)-3-(3-Fluoroazetidin-1-yl)cyclobutyl (8-amino-7-fluoro-6-(8-methyl-2,3-dihydro-1H-pyrido[2,3-b][1,4]oxazin-7-yl)isoquinolin-3-yl)carbamate]: the Ki is below 0.013 nM.

With `Cc1c(-c2cc3cc(NC(=O)O[C@@H]4C[C@](C)(O)[C@@H]4C)ncc3c(N)c2F)cnc2c1NCCO2` [Compound 526a, (1R,2R,3S)-3-Hydroxy-2,3-dimethylcyclobutyl (8-amino-7-fluoro-6-(8-methyl-2,3-dihydro-1H-pyrido[2,3-b][1,4]oxazin-7-yl)isoquinolin-3-yl)carbamate], the Ki is 0.015 nM.

`Cc1c(-c2cc3cc(NC(=O)O[C@@H]4C[C@@](C)(O)[C@H]4C)ncc3c(N)c2F)cnc2c1NCCO2` [Compound 526d, (1R,2S,3R)-3-Hydroxy-2,3-dimethylcyclobutyl (8-amino-7-fluoro-6-(8-methyl-2,3-dihydro-1H-pyrido[2,3-b][1,4]oxazin-7-yl)isoquinolin-3-yl)carbamate]: the Ki turned out to be 0.018 nM. With `CNc1cncc(-c2cc3cc(NC(=O)O[C@H]4C[C@](C)(O)C4)ncc3c(N)c2F)c1C` [Compound 527a, (1r,3r)-3-Hydroxy-3-methylcyclobutyl (8-amino-7-fluoro-6-(4-methyl-5-(methylamino)pyridin-3-yl)isoquinolin-3-yl)carbamate], the Ki was determined as 0.538 nM. As to `CNc1cncc(-c2cc3cc(NC(=O)O[C@H]4C[C@@](C)(O)C4)ncc3c(N)c2F)c1C` [Compound 527b, (1s,3s)-3-Hydroxy-3-methylcyclobutyl (8-amino-7-fluoro-6-(4-methyl-5-(methylamino)pyridin-3-yl)isoquinolin-3-yl)carbamate], the Ki came out at 0.216 nM.

With `CO[C@]1(C)C[C@H](OC(=O)Nc2cc3cc(-c4cnc5c(c4C)NCCO5)c(F)c(N)c3cn2)C1` [Compound 528a, (1s,3s)-3-Methoxy-3-methyl cyclobutyl (8-amino-7-fluoro-6-(8-methyl-2,3-dihydro-1H-pyrido[2,3-b][1,4]oxazin-7-yl)isoquinolin-3-yl)carbamate], the Ki is below 0.013 nM. In the case of `CC(=O)O[C@]1(C)C[C@H](OC(=O)Nc2cc3cc(-c4cnc5c(c4C)NCCO5)c(F)c(N)c3cn2)C1` [Compound 529b, (1s,3s)-3-(((8-Amino-7-fluoro-6-(8-methyl-2,3-dihydro-1H-pyrido[2,3-b][1,4]oxazin-7-yl)isoquinolin-3-yl)carbamoyl)oxy)-1-methylcyclobutyl acetate] it was 0.019 nM; in that of `Cc1c(-c2cc3cc(NC(=O)OC4CC5(C4)CN(CC(F)F)C5)ncc3c(N)c2F)cnc2c1NCCC2` [Compound 532, 2-(2,2-Difluoroethyl)-2-azaspiro[3.3]heptan-6-yl (8-amino-7-fluoro-6-(4-methyl-5,6,7,8-tetrahydro-1,5-naphthyridin-3-yl)isoquinolin-3-yl)carbamate], 0.014 nM. Consider `Cc1c(N)cncc1-c1cc2cc(NC(=O)O[C@H]3C[C@@H](C#N)C3)ncc2c(N)c1F` [Compound 534a, (1s,3s)-3-Cyanocyclobutyl (8-amino-6-(5-amino-4-methylpyridin-3-yl)-7-fluoroisoquinolin-3-yl)carbamate], for which the Ki was found to be 0.14 nM.

`Cc1c(-c2cc3cc(NC(=O)O[C@@H]4CC[C@H]4C#N)ncc3c(N)c2F)cnc2c1NCCO2` [Compound 535b, (1R,2S)-2-Cyanocyclobutyl (8-amino-7-fluoro-6-(8-methyl-2,3-dihydro-1H-pyrido[2,3-b][1,4]oxazin-7-yl)isoquinolin-3-yl)carbamate]: the Ki was 0.029 nM.

As for `Cc1c(-c2cc3cc(NC(=O)O[C@H]4C[C@@H](CC#N)C4)ncc3c(N)c2F)cnc2c1NCCO2` [Compound 536a, (1r,3s)-3-(Cyanomethyl)cyclobutyl (8-amino-7-fluoro-6-(8-methyl-2,3-dihydro-1H-pyrido[2,3-b][1,4]oxazin-7-yl)isoquinolin-3-yl)carbamate], the Ki is below 0.013 nM. Consider `Cc1c(-c2cc3cc(NC(=O)O[C@H]4C[C@@](C)(C#N)C4)ncc3c(N)c2F)cnc2c1NCCO2` [Compound 537a, (1s,3s)-3-Cyano-3-methylcyclobutyl (8-amino-7-fluoro-6-(8-methyl-2,3-dihydro-1H-pyrido[2,3-b][1,4]oxazin-7-yl)isoquinolin-3-yl)carbamate], for which the Ki came to 0.015 nM. `Cc1c(-c2cc3cc(NC(=O)O[C@H]4C[C@](C)(C#N)C4)ncc3c(N)c2F)cnc2c1NCCO2` [Compound 537b, (1r,3r)-3-Cyano-3-methylcyclobutyl (8-amino-7-fluoro-6-(8-methyl-2,3-dihydro-1H-pyrido[2,3-b][1,4]oxazin-7-yl)isoquinolin-3-yl)carbamate]: the Ki was below 0.013 nM.

For orientation: Ki means a dissociation constant, usually derived from enzyme kinetics or from competition with a known ligand.
